From the supplement of paper PMC10307832

Key:
Assay in all cases: relative viability (nuclei count vs DMSO), 5 days (fraction); higher = more cells survive
[1] = system: NCI-H1734
Method in brief: (§1)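 Lung cancer cell lines, seeded in 1536-well plates, were treated the following day by pin tool with a single drug or with five library-drug doses (not always all listed) in √10 steps on top of a fixed anchor-drug dose. Cells were fixed and nuclei stained in one step after 5 days, and nuclei were counted. Relative viability is the nuclei count for treated wells divided by that for vehicle wells, reported as medians of duplicate plates.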

[2] = system: LU99A
Method in brief: as §1

[3] = system: NCI-H460
Method in brief: as §1

[4] = system: NCI-H2228
Method in brief: as §1

[5] = system: PC-3 [JPC-3]
Method in brief: as §1

[6] = system: LOU-NH91
Method in brief: as §1

[7] = system: NCI-H3122
Method in brief: as §1

[8] = system: CAL-12T
Method in brief: as §1

[9] = system: RERF-LC-KJ
Method in brief: as §1

[10] = system: NCI-H2405
Method in brief: as §1

[11] = system: NCI-H1793
Method in brief: as §1

[12] = system: LC-2-ad
Method in brief: as §1

[13] = system: NCI-H1755
Method in brief: as §1

[14] = system: NCI-H2087
Method in brief: as §1

[15] = system: NCI-H1651
Method in brief: as §1

[16] = system: HCC-78
Method in brief: as §1

[17] = system: ChaGo-K-1
Method in brief: as §1

[18] = system: ABC-1
Method in brief: as §1

[19] = system: NCI-H1944
Method in brief: as §1

[20] = system: NCI-H1395
Method in brief: as §1

[21] = system: UMC-11
Method in brief: as §1

[22] = system: NCI-H2170
Method in brief: as §1

[23] = system: HCC-366
Method in brief: as §1

For `CC1(C)CCC(c2ccc(Cl)cc2)=C(CN2CCN(c3ccc(C(=O)NS(=O)(=O)c4ccc(N[C@H](CCN5CCOCC5)CSc5ccccc5)c(S(=O)(=O)C(F)(F)F)c4)cc3)CC2)C1` [Navitoclax] + COc1cccc2cc(-c3nc([C@H]4CC[C@H](C(=O)O)CC4)n4ncnc(N)c34)[nH]c12 [OSI-027] (partner 0.5 µM), the relative viability ([1]; first compound 0.005 µM) was 0.617, the relative viability ([1]; first compound 0.01581 µM) was 0.822 and the relative viability ([1]; first compound 0.1581 µM) was 0.53. The relative viability ([1]; first compound 0.5 µM) was 0.622, the relative viability ([2]; first compound 0.005 µM) was 0.305 and the relative viability ([2]; first compound 0.01581 µM) was 0.345. It also gave a relative viability ([2]; first compound 0.05 µM) of 0.248, a relative viability ([2]; first compound 0.1581 µM) of 0.26 and a relative viability ([2]; first compound 0.5 µM) of 0.312. For the same compound, the relative viability ([3]; first compound 0.005 µM) was 0.652, the relative viability ([3]; first compound 0.01581 µM) was 0.702 and the relative viability ([3]; first compound 0.05 µM) was 0.821. The relative viability ([3]; first compound 0.1581 µM) was 0.652, the relative viability ([3]; first compound 0.5 µM) was 0.671 and the relative viability ([4]; first compound 0.005 µM) was 0.586. The relative viability ([4]; first compound 0.01581 µM) was 0.726, the relative viability ([4]; first compound 0.1581 µM) was 0.53 and the relative viability ([4]; first compound 0.5 µM) was 0.5. It also gave a relative viability ([5]; first compound 0.005 µM) of 0.844, a relative viability ([5]; first compound 0.01581 µM) of 0.764 and a relative viability ([5]; first compound 0.05 µM) of 0.768. It also gave a relative viability ([5]; first compound 0.1581 µM) of 0.809, a relative viability ([5]; first compound 0.5 µM) of 0.703 and a relative viability ([6]; first compound 0.005 µM) of 0.775. It also gave a relative viability ([6]; first compound 0.01581 µM) of 0.76, a relative viability ([6]; first compound 0.05 µM) of 0.699 and a relative viability ([6]; first compound 0.1581 µM) of 0.755. The relative viability ([6]; first compound 0.5 µM) was 0.661, the relative viability ([7]; first compound 0.005 µM) was 0.98 and the relative viability ([7]; first compound 0.01581 µM) was 0.949. It also gave a relative viability ([7]; first compound 0.05 µM) of 1.04, a relative viability ([7]; first compound 0.1581 µM) of 0.902 and a relative viability ([7]; first compound 0.5 µM) of 0.978. It also gave a relative viability ([8]; first compound 0.005 µM) of 0.649, a relative viability ([8]; first compound 0.01581 µM) of 0.676 and a relative viability ([8]; first compound 0.05 µM) of 0.557. For the same compound, the relative viability ([8]; first compound 0.1581 µM) was 0.677, the relative viability ([8]; first compound 0.5 µM) was 0.629 and the relative viability ([9]; first compound 0.005 µM) was 0.568. For the same compound, the relative viability ([9]; first compound 0.01581 µM) was 0.633, the relative viability ([9]; first compound 0.05 µM) was 0.498 and the relative viability ([9]; first compound 0.1581 µM) was 0.599. It also gave a relative viability ([9]; first compound 0.5 µM) of 0.616, a relative viability ([10]; first compound 0.005 µM) of 0.664 and a relative viability ([10]; first compound 0.01581 µM) of 0.682. The relative viability ([10]; first compound 0.05 µM) was 0.644, the relative viability ([10]; first compound 0.1581 µM) was 0.632 and the relative viability ([10]; first compound 0.5 µM) was 0.558. The relative viability ([11]; first compound 0.005 µM) was 0.267, the relative viability ([11]; first compound 0.01581 µM) was 0.414 and the relative viability ([11]; first compound 0.1581 µM) was 0.273. It also gave a relative viability ([11]; first compound 0.5 µM) of 0.261, a relative viability ([12]; first compound 0.005 µM) of 0.802 and a relative viability ([12]; first compound 0.01581 µM) of 1.09. For the same compound, the relative viability ([12]; first compound 0.05 µM) was 0.895, the relative viability ([12]; first compound 0.1581 µM) was 0.762 and the relative viability ([12]; first compound 0.5 µM) was 0.767. The relative viability ([13]; first compound 0.005 µM) was 0.683, the relative viability ([13]; first compound 0.01581 µM) was 0.834 and the relative viability ([13]; first compound 0.05 µM) was 0.612. It also gave a relative viability ([13]; first compound 0.1581 µM) of 0.649, a relative viability ([13]; first compound 0.5 µM) of 0.671 and a relative viability ([14]; first compound 0.005 µM) of 0.47. For the same compound, the relative viability ([14]; first compound 0.01581 µM) was 0.679, the relative viability ([14]; first compound 0.1581 µM) was 0.537 and the relative viability ([14]; first compound 0.5 µM) was 0.794. The relative viability ([15]; first compound 0.005 µM) was 0.685, the relative viability ([15]; first compound 0.01581 µM) was 0.795 and the relative viability ([15]; first compound 0.05 µM) was 0.813. It also gave a relative viability ([15]; first compound 0.1581 µM) of 0.782, a relative viability ([15]; first compound 0.5 µM) of 0.721 and a relative viability ([16]; first compound 0.005 µM) of 0.399. For the same compound, the relative viability ([16]; first compound 0.01581 µM) was 0.343, the relative viability ([16]; first compound 0.1581 µM) was 0.349 and the relative viability ([16]; first compound 0.5 µM) was 0.384. It also gave a relative viability ([17]; first compound 0.005 µM) of 0.548, a relative viability ([17]; first compound 0.01581 µM) of 0.536 and a relative viability ([17]; first compound 0.05 µM) of 0.541. It also gave a relative viability ([17]; first compound 0.1581 µM) of 0.55, a relative viability ([17]; first compound 0.5 µM) of 0.6 and a relative viability ([18]; first compound 0.005 µM) of 0.506. For the same compound, the relative viability ([18]; first compound 0.01581 µM) was 0.637, the relative viability ([18]; first compound 0.05 µM) was 0.397 and the relative viability ([18]; first compound 0.1581 µM) was 0.572. It also gave a relative viability ([18]; first compound 0.5 µM) of 0.356, a relative viability ([19]; first compound 0.005 µM) of 0.401 and a relative viability ([19]; first compound 0.01581 µM) of 0.495. For the same compound, the relative viability ([19]; first compound 0.05 µM) was 0.364, the relative viability ([19]; first compound 0.1581 µM) was 0.376 and the relative viability ([19]; first compound 0.5 µM) was 0.419. The relative viability ([20]; first compound 0.005 µM) was 0.591, the relative viability ([20]; first compound 0.01581 µM) was 0.77 and the relative viability ([20]; first compound 0.05 µM) was 0.601. It also gave a relative viability ([20]; first compound 0.1581 µM) of 0.569, a relative viability ([20]; first compound 0.5 µM) of 0.754 and a relative viability ([21]; first compound 0.005 µM) of 0.462. It also gave a relative viability ([21]; first compound 0.01581 µM) of 0.501, a relative viability ([21]; first compound 0.05 µM) of 0.471 and a relative viability ([21]; first compound 0.1581 µM) of 0.422. It also gave a relative viability ([21]; first compound 0.5 µM) of 0.234, a relative viability ([22]; first compound 0.005 µM) of 0.669 and a relative viability ([22]; first compound 0.01581 µM) of 0.814. It also gave a relative viability ([22]; first compound 0.05 µM) of 0.787, a relative viability ([22]; first compound 0.1581 µM) of 0.647 and a relative viability ([22]; first compound 0.5 µM) of 0.551. For the same compound, the relative viability ([23]; first compound 0.005 µM) was 0.912, the relative viability ([23]; first compound 0.01581 µM) was 0.941 and the relative viability ([23]; first compound 0.1581 µM) was 0.972. The relative viability ([23]; first compound 0.5 µM) was 0.978.
